Measurements from patent publication US20230312473A1, “PROCESS FOR THE PREPARATION OF BIHETEROARYL COMPOUNDS AND CRYSTAL FORMS THEREOF” (Genentech, Inc., priority 2020, published 2023).
Where two headings read alike, the source gives them in different places.

Test: Solubility of compound 1 in the solvent under evaluation at 22° C. and 65° C. (crystallization study)
Assay type: physicochemical
Protocol: Crystalline compound 1 was evaluated. Crystallization study procedures were done based on the solubility of compound 1 in the solvent under evaluation as follows.
The results are presented below in Table 10 where: * refers to compound 1 prepared as described above; and ** refers to compound 1 prepared as described above and further incubated at 100% relative humidity at 22° C. for 17 days.

SMILES: Nc1ncc(-c2cc(N3C[C@@H]4C[C@H]3CO4)nc(N3CCC(F)(F)C3)n2)cc1OC(F)F [Compound 1, 5-(6-((1S,4S)-2-oxa-5-azabicyclo[2.2.1]heptan-5-yl)-2-(3,3-difluoropyrrolidin-1-yl)pyrimidin-4-yl)-3-(difluoromethoxy)pyridin-2-amine]
- solubility (2-methyl THF, 22 °C, organic solvent or mixture, thermodynamic from solid, solvent: 2-methyl THF, read-out: Solubility at 22° C.): < 50 mg/mL
- solubility (2-methyl THF, 65 °C, organic solvent or mixture, solvent: 2-methyl THF, read-out: Solubility at 65° C.): > 50 mg/mL
- solubility (5% water in ethanol, 22 °C, organic solvent or mixture, thermodynamic from solid, solvent: 5% water in ethanol, read-out: Solubility at 22° C.): < 50 mg/mL
- solubility (5% water in ethanol, 65 °C, organic solvent or mixture, solvent: 5% water in ethanol, read-out: Solubility at 65° C.): < 50 mg/mL
- solubility (5% water in isopropanol, 22 °C, organic solvent or mixture, thermodynamic from solid, solvent: 5% water in isopropanol, read-out: Solubility at 22° C.): < 50 mg/mL
- solubility (5% water in isopropanol, 65 °C, organic solvent or mixture, solvent: 5% water in isopropanol, read-out: Solubility at 65° C.): < 50 mg/mL
- solubility (5% water in methanol, 22 °C, organic solvent or mixture, thermodynamic from solid, solvent: 5% water in methanol, read-out: Solubility at 22° C.): < 50 mg/mL
- solubility (5% water in methanol, 65 °C, organic solvent or mixture, solvent: 5% water in methanol, read-out: Solubility at 65° C.): < 50 mg/mL
- solubility (5% water in propanol, 22 °C, organic solvent or mixture, thermodynamic from solid, solvent: 5% water in propanol, read-out: Solubility at 22° C.): < 50 mg/mL
- solubility (5% water in propanol, 65 °C, organic solvent or mixture, solvent: 5% water in propanol, read-out: Solubility at 65° C.): < 50 mg/mL
- solubility (15% water in THF, 22 °C, organic solvent or mixture, thermodynamic from solid, solvent: 15% water in THF, read-out: Solubility at 22° C.): > 50 mg/mL
- solubility (15% water in acetone, 22 °C, organic solvent or mixture, thermodynamic from solid, solvent: 15% water in acetone, read-out: Solubility at 22° C.): < 50 mg/mL
- solubility (15% water in acetone, 65 °C, organic solvent or mixture, thermodynamic from solid, solvent: 15% water in acetone, read-out: Solubility at 65° C.): > 50 mg/mL
- solubility (15% water in ethanol, 22 °C, organic solvent or mixture, thermodynamic from solid, solvent: 15% water in ethanol, read-out: Solubility at 22° C.): < 50 mg/mL
- solubility (15% water in ethanol, 65 °C, organic solvent or mixture, thermodynamic from solid, solvent: 15% water in ethanol, read-out: Solubility at 65° C.): < 50 mg/mL
- solubility (15% water in isopropanol, 22 °C, organic solvent or mixture, thermodynamic from solid, solvent: 15% water in isopropanol, read-out: Solubility at 22° C.): < 50 mg/mL
- solubility (15% water in isopropanol, 65 °C, organic solvent or mixture, thermodynamic from solid, solvent: 15% water in isopropanol, read-out: Solubility at 65° C.): < 50 mg/mL
- solubility (15% water in methanol, 22 °C, organic solvent or mixture, thermodynamic from solid, solvent: 15% water in methanol, read-out: Solubility at 22° C.): < 50 mg/mL
- solubility (15% water in methanol, 65 °C, organic solvent or mixture, solvent: 15% water in methanol, read-out: Solubility at 65° C.): < 50 mg/mL
- solubility (15% water in propanol, 22 °C, organic solvent or mixture, thermodynamic from solid, solvent: 15% water in propanol, read-out: Solubility at 22° C.): < 50 mg/mL
- solubility (15% water in propanol, 65 °C, organic solvent or mixture, solvent: 15% water in propanol, read-out: Solubility at 65° C.): < 50 mg/mL
- solubility (20% water in acetonitrile, 22 °C, organic solvent or mixture, thermodynamic from solid, solvent: 20% water in acetonitrile, read-out: Solubility at 22° C.): < 50 mg/mL
- solubility (20% water in acetonitrile, 65 °C, organic solvent or mixture, solvent: 20% water in acetonitrile, read-out: Solubility at 65° C.): > 50 mg/mL
- solubility (50% water in acetonitrile, 22 °C, aqueous with cosolvent or surfactant or cyclodextrin, thermodynamic from solid, solvent: 50% water in acetonitrile, read-out: Solubility at 22° C.): < 50 mg/mL
- solubility (50% water in acetonitrile, 65 °C, aqueous with cosolvent or surfactant or cyclodextrin, solvent: 50% water in acetonitrile, read-out: Solubility at 65° C.): < 50 mg/mL
- solubility (50% water in ethanol, 22 °C, aqueous with cosolvent or surfactant or cyclodextrin, thermodynamic from solid, solvent: 50% water in ethanol, read-out: Solubility at 22° C.): < 50 mg/mL
- solubility (50% water in ethanol, 65 °C, aqueous with cosolvent or surfactant or cyclodextrin, solvent: 50% water in ethanol, read-out: Solubility at 65° C.): < 50 mg/mL
- solubility (50% water in isopropanol, 22 °C, aqueous with cosolvent or surfactant or cyclodextrin, thermodynamic from solid, solvent: 50% water in isopropanol, read-out: Solubility at 22° C.): < 50 mg/mL
- solubility (50% water in isopropanol, 65 °C, aqueous with cosolvent or surfactant or cyclodextrin, solvent: 50% water in isopropanol, read-out: Solubility at 65° C.): < 50 mg/mL
- solubility (50% water in methanol, 22 °C, aqueous with cosolvent or surfactant or cyclodextrin, thermodynamic from solid, solvent: 50% water in methanol, read-out: Solubility at 22° C.): < 50 mg/mL
- solubility (50% water in methanol, 65 °C, aqueous with cosolvent or surfactant or cyclodextrin, solvent: 50% water in methanol, read-out: Solubility at 65° C.): < 50 mg/mL
- solubility (50% water in propanol, 22 °C, aqueous with cosolvent or surfactant or cyclodextrin, thermodynamic from solid, solvent: 50% water in propanol, read-out: Solubility at 22° C.): < 50 mg/mL
- solubility (50% water in propanol, 65 °C, aqueous with cosolvent or surfactant or cyclodextrin, solvent: 50% water in propanol, read-out: Solubility at 65° C.): < 50 mg/mL
- solubility (80% water in acetonitrile, 22 °C, aqueous with cosolvent or surfactant or cyclodextrin, thermodynamic from solid, solvent: 80% water in acetonitrile, read-out: Solubility at 22° C.): < 50 mg/mL
- solubility (80% water in acetonitrile, 65 °C, aqueous with cosolvent or surfactant or cyclodextrin, solvent: 80% water in acetonitrile, read-out: Solubility at 65° C.): < 50 mg/mL
- solubility (Acetic acid, 22 °C, organic solvent or mixture, thermodynamic from solid, solvent: Acetic acid, read-out: Solubility at 22° C.): > 100 mg/mL
- solubility (Acetonitrile, 22 °C, organic solvent or mixture, thermodynamic from solid, solvent: Acetonitrile, read-out: Solubility at 22° C.): < 50 mg/mL
- solubility (Acetonitrile, 65 °C, organic solvent or mixture, solvent: Acetonitrile, read-out: Solubility at 65° C.): > 50 mg/mL
- solubility (Chloroform, 22 °C, organic solvent or mixture, thermodynamic from solid, solvent: Chloroform, read-out: Solubility at 22° C.): < 50 mg/mL
- solubility (Chloroform, 65 °C, organic solvent or mixture, solvent: Chloroform, read-out: Solubility at 65° C.): > 50 mg/mL
- solubility (DMA, 22 °C, organic solvent or mixture, thermodynamic from solid, solvent: DMA, read-out: Solubility at 22° C.): > 200 mg/mL
- solubility (DMF, 22 °C, organic solvent or mixture, thermodynamic from solid, solvent: DMF, read-out: Solubility at 22° C.): > 100 mg/mL
- solubility (DMSO, 22 °C, organic solvent or mixture, thermodynamic from solid, solvent: DMSO, read-out: Solubility at 22° C.): > 100 mg/mL
- solubility (Dichloromethane, 22 °C, organic solvent or mixture, thermodynamic from solid, solvent: Dichloromethane, read-out: Solubility at 22° C.): < 50 mg/mL
- solubility (Dichloromethane, 65 °C, organic solvent or mixture, solvent: Dichloromethane, read-out: Solubility at 65° C.): > 50 mg/mL
